{"source": "PubChem BioAssay (NCI)", "experiment_in_all_cases": "NCI-60 cell line screen, 48 h", "key": {"T-47D breast": {"tested_on": "T-47D breast"}, "HOP-62 NSCLC": {"tested_on": "HOP-62 NSCLC"}, "K-562 leukemia": {"tested_on": "K-562 leukemia"}, "UO-31 renal": {"tested_on": "UO-31 renal"}, "HCT-15 colon": {"tested_on": "HCT-15 colon"}, "MOLT-4 leukemia": {"tested_on": "MOLT-4 leukemia"}, "RXF 393 renal": {"tested_on": "RXF 393 renal"}, "UACC-257 melanoma": {"tested_on": "UACC-257 melanoma"}, "NCI-H226 lung": {"tested_on": "NCI-H226 lung"}, "COLO 205 colon": {"tested_on": "COLO 205 colon"}, "CAKI-1 renal": {"tested_on": "CAKI-1 renal"}, "NCI-H23 lung": {"tested_on": "NCI-H23 lung"}, "MDA-MB-435": {"tested_on": "MDA-MB-435"}, "SN12C renal": {"tested_on": "SN12C renal"}, "OVCAR-8 ovarian": {"tested_on": "OVCAR-8 ovarian"}, "HOP-92 NSCLC": {"tested_on": "HOP-92 NSCLC"}, "SNB-75 CNS": {"tested_on": "SNB-75 CNS"}, "HS 578T breast": {"tested_on": "HS 578T breast"}, "UACC-62 melanoma": {"tested_on": "UACC-62 melanoma"}, "MDA-MB-231 breast": {"tested_on": "MDA-MB-231 breast"}, "786-0 renal": {"tested_on": "786-0 renal"}, "SK-MEL-28 melanoma": {"tested_on": "SK-MEL-28 melanoma"}, "NCI-H522 lung": {"tested_on": "NCI-H522 lung"}, "MCF7 breast": {"tested_on": "MCF7 breast"}, "HL-60(TB) leukemia": {"tested_on": "HL-60(TB) leukemia"}, "MALME-3M melanoma": {"tested_on": "MALME-3M melanoma"}, "TK-10 renal": {"tested_on": "TK-10 renal"}, "NCI-H460 lung": {"tested_on": "NCI-H460 lung"}, "NCI/ADR-RES ovarian": {"tested_on": "NCI/ADR-RES ovarian"}, "U251 CNS": {"tested_on": "U251 CNS"}, "BT-549 breast": {"tested_on": "BT-549 breast"}, "OVCAR-5 ovarian": {"tested_on": "OVCAR-5 ovarian"}, "LOX IMVI melanoma": {"tested_on": "LOX IMVI melanoma"}, "SR leukemia": {"tested_on": "SR leukemia"}, "OVCAR-3 ovarian": {"tested_on": "OVCAR-3 ovarian"}, "A549 NSCLC": {"tested_on": "A549 NSCLC"}, "IGROV1 ovarian": {"tested_on": "IGROV1 ovarian"}, "SK-OV-3 ovarian": {"tested_on": "SK-OV-3 ovarian"}, "SF-539 CNS": {"tested_on": "SF-539 CNS"}, "OVCAR-4 ovarian": {"tested_on": "OVCAR-4 ovarian"}, "HT29 colon": {"tested_on": "HT29 colon"}, "M14 melanoma": {"tested_on": "M14 melanoma"}, "SW-620 colon": {"tested_on": "SW-620 colon"}, "DU-145 prostate": {"tested_on": "DU-145 prostate"}, "SNB-19 CNS": {"tested_on": "SNB-19 CNS"}, "SF-295 CNS": {"tested_on": "SF-295 CNS"}, "SK-MEL-5 melanoma": {"tested_on": "SK-MEL-5 melanoma"}, "HCT-116 colon": {"tested_on": "HCT-116 colon"}, "EKVX NSCLC": {"tested_on": "EKVX NSCLC"}, "SF-268 CNS": {"tested_on": "SF-268 CNS"}, "PC-3 prostate": {"tested_on": "PC-3 prostate"}, "KM12 colon": {"tested_on": "KM12 colon"}, "SK-MEL-2 melanoma": {"tested_on": "SK-MEL-2 melanoma"}, "ACHN renal": {"tested_on": "ACHN renal"}}, "note": "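Each compound was tested at five concentrations against cells in 96-well plates for 48 hours. The concentration for full growth arrest is given as TGI.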", "data": [{"compound": "O=C1/C(=N/N=C(c2ccccc2)c2ccccc2)c2ccccc2-c2ccccc21", "values": [{"measurement": "TGI", "setting": "T-47D breast", "result": "> 100", "unit": "µM"}, {"measurement": "TGI", "setting": "HOP-62 NSCLC", "result": "> 100", "unit": "µM"}, {"measurement": "TGI", "setting": "K-562 leukemia", "result": "> 100", "unit": "µM"}, {"measurement": "TGI", "setting": "UO-31 renal", "result": "> 100", "unit": "µM"}, {"measurement": "TGI", "setting": "HCT-15 colon", "result": "> 100", "unit": "µM"}, {"measurement": "TGI", "setting": "MOLT-4 leukemia", "result": "> 100", "unit": "µM"}, {"measurement": "TGI", "setting": "RXF 393 renal", "result": "> 100", "unit": "µM"}, {"measurement": "TGI", "setting": "UACC-257 melanoma", "result": "> 100", "unit": "µM"}, {"measurement": "TGI", "setting": "NCI-H226 lung", "result": "> 100", "unit": "µM"}, {"measurement": "TGI", "setting": "COLO 205 colon", "result": "> 100", "unit": "µM"}, {"measurement": "TGI", "setting": "CAKI-1 renal", "result": "> 100", "unit": "µM"}, {"measurement": "TGI", "setting": "NCI-H23 lung", "result": "> 100", "unit": "µM"}, {"measurement": "TGI", "setting": "MDA-MB-435", "result": "> 100", "unit": "µM"}, {"measurement": "TGI", "setting": "SN12C renal", "result": "> 100", "unit": "µM"}, {"measurement": "TGI", "setting": "OVCAR-8 ovarian", "result": "> 100", "unit": "µM"}, {"measurement": "TGI", "setting": "HOP-92 NSCLC", "result": 87.8, "unit": "µM"}, {"measurement": "TGI", "setting": "SNB-75 CNS", "result": "> 100", "unit": "µM"}, {"measurement": "TGI", "setting": "HS 578T breast", "result": "> 100", "unit": "µM"}, {"measurement": "TGI", "setting": "UACC-62 melanoma", "result": "> 100", "unit": "µM"}, {"measurement": "TGI", "setting": "MDA-MB-231 breast", "result": "> 100", "unit": "µM"}, {"measurement": "TGI", "setting": "786-0 renal", "result": "> 100", "unit": "µM"}, {"measurement": "TGI", "setting": "SK-MEL-28 melanoma", "result": "> 100", "unit": "µM"}, {"measurement": "TGI", "setting": "NCI-H522 lung", "result": "> 100", "unit": "µM"}, {"measurement": "TGI", "setting": "MCF7 breast", "result": "> 100", "unit": "µM"}, {"measurement": "TGI", "setting": "HL-60(TB) leukemia", "result": "> 100", "unit": "µM"}, {"measurement": "TGI", "setting": "MALME-3M melanoma", "result": "> 100", "unit": "µM"}, {"measurement": "TGI", "setting": "TK-10 renal", "result": "> 100", "unit": "µM"}, {"measurement": "TGI", "setting": "NCI-H460 lung", "result": "> 100", "unit": "µM"}, {"measurement": "TGI", "setting": "NCI/ADR-RES ovarian", "result": "> 100", "unit": "µM"}, {"measurement": "TGI", "setting": "U251 CNS", "result": "> 100", "unit": "µM"}, {"measurement": "TGI", "setting": "BT-549 breast", "result": "> 100", "unit": "µM"}, {"measurement": "TGI", "setting": "OVCAR-5 ovarian", "result": "> 100", "unit": "µM"}, {"measurement": "TGI", "setting": "LOX IMVI melanoma", "result": "> 100", "unit": "µM"}, {"measurement": "TGI", "setting": "SR leukemia", "result": "> 100", "unit": "µM"}, {"measurement": "TGI", "setting": "OVCAR-3 ovarian", "result": "> 100", "unit": "µM"}, {"measurement": "TGI", "setting": "A549 NSCLC", "result": "> 100", "unit": "µM"}, {"measurement": "TGI", "setting": "IGROV1 ovarian", "result": "> 100", "unit": "µM"}, {"measurement": "TGI", "setting": "SK-OV-3 ovarian", "result": "> 100", "unit": "µM"}, {"measurement": "TGI", "setting": "SF-539 CNS", "result": "> 100", "unit": "µM"}, {"measurement": "TGI", "setting": "OVCAR-4 ovarian", "result": "> 100", "unit": "µM"}, {"measurement": "TGI", "setting": "HT29 colon", "result": "> 100", "unit": "µM"}, {"measurement": "TGI", "setting": "M14 melanoma", "result": "> 100", "unit": "µM"}, {"measurement": "TGI", "setting": "SW-620 colon", "result": "> 100", "unit": "µM"}, {"measurement": "TGI", "setting": "DU-145 prostate", "result": "> 100", "unit": "µM"}, {"measurement": "TGI", "setting": "SNB-19 CNS", "result": "> 100", "unit": "µM"}, {"measurement": "TGI", "setting": "SF-295 CNS", "result": "> 100", "unit": "µM"}, {"measurement": "TGI", "setting": "SK-MEL-5 melanoma", "result": "> 100", "unit": "µM"}, {"measurement": "TGI", "setting": "HCT-116 colon", "result": "> 100", "unit": "µM"}, {"measurement": "TGI", "setting": "EKVX NSCLC", "result": "> 100", "unit": "µM"}, {"measurement": "TGI", "setting": "SF-268 CNS", "result": "> 100", "unit": "µM"}, {"measurement": "TGI", "setting": "PC-3 prostate", "result": "> 100", "unit": "µM"}, {"measurement": "TGI", "setting": "KM12 colon", "result": "> 100", "unit": "µM"}, {"measurement": "TGI", "setting": "SK-MEL-2 melanoma", "result": "> 100", "unit": "µM"}, {"measurement": "TGI", "setting": "ACHN renal", "result": "> 100", "unit": "µM"}]}]}
